Results as given in EP3436024B1, “3-BETA-METHOXY-PREG FOR USE IN THE TREATMENT OF TREATMENT RESISTANT DEPRESSION” (Mapreg, priority 2016, dated 2017).

What was measured:
[1] = target: Noradrenergic Transporter (Homo sapiens, UniProt P23975); assay: CNS receptor binding assay, noradrenergic transporter; conditions: MAP4343 10 µM; [^3H] nisoxetine; Human recombinant (CHO cells); read-out: % Inhibition of control specific binding
Protocol: (§1) MAP4343 has been screened for in vitro affinity to 80 different CNS neurotransmitters receptors using various validated binding assays.
(§2) Table 4. In vitro affinity of MAP4343 (10 µM) for CNS neurotransmitter receptors associated with side effects and/or abuse liability. Data are the average of two individual assays for each receptor and are expressed as % inhibition of the control specific binding of the reference compound. Results showing an inhibition higher than 50% are considered to represent significant effects of the test compound.

Dopaminergic D4.4 = Dopaminergic D4.4 (Homo sapiens, UniProt P21917); assay: CNS receptor binding assay, D4.4; conditions: MAP4343 10 µM; [^3H] spiperone; Human recombinant (CHO cells); read-out: % Inhibition of control specific binding
Protocol: as §1, §2

[2] = test system: 80 different CNS neurotransmitters receptors; assay: Screen for in vitro affinity to 80 CNS neurotransmitter receptors; assay type: binding; conditions: MAP4343 10 µM; inhibition higher than 50% considered significant
Protocol: as §1, §2

Wistar Kyoto (WKY) rats [3] = assay: Forced swimming test (FST), WKY rats; assay type: in vivo, rat; conditions: dose-ranging, MAP4343 15 mg/kg, Fig. 6B
Protocol: 3B-methoxy-PREG (also referred to as "MAP4343" in Example 4) was dissolved in sesame oil by sonication using a Sonifer-450 (Branson Ultrasonics Corporation, Danbury, USA) during 1 cycle of 5 pulses in sesame oil. Fluoxetine (Biotrend, Köln, Germany) and Ketamine (Sigma-Aldrich, St-Quentin Fallvier, France) were dissolved in sterile saline solution (NaCl 0.9%). The drug formulations were prepared freshly each day of treatment. MAP4343 was administered subcutaneously (ranging of 1-15 mg/Kg/day) while fluoxetine and ketamine were injected intraperitonealy (10 mg/Kg/day and 30 mg/Kg/day, respectively).
After a 6-day period of acclimatization, all experimental groups received daily successive subcutaneous (250 µl per rat) and intraperitoneal (1 ml/kg) injections. […]
Rats were submitted to the forced swimming test (FST), according the procedure initially described by (Detke et al., 1995) and slightly modified by (Bianchi et al., 2002). […] The pre-test and test sessions were recorded using a video camera placed above the cylinder for subsequent behavioral analysis. The immobility time (in sec) was blindly measured by two independent experimenters from recorded videos. […]
The effects of a dose-ranging administration of MAP4343 were tested in WI and WKY rats on their immobility time measured in FST.

NMDA PCP site = assay: CNS receptor binding assay, NMDA PCP site; conditions: MAP4343 10 µM; [^3H] TCP; rat cerebral cortex
Protocol: as §1, §2

ERβ = target: T1, ERβ (Homo sapiens, UniProt Q92731); assay: Radioligand binding assay, steroid hormone receptor ERβ; conditions: MAP4343 10 µM; 0.5 nM [^3H] Estradiol; Human recombinant Sf9 cells; second ER row
T1 construct: host or cells: Sf9 cells
Protocol: (§3) Binding affinity of 3β-methoxy-PREG (MAP4343) for receptors of steroid hormones was evaluated using radioligand binding assays.
(§4) Table 3. Affinity of MAP4343 (10 µM) for steroid hormones receptors measured by radioligand binding assays. […] None of the results met significance criteria at concentrations used.

PC12 cells = assay: Stimulation of neuritic sprouting; assay type: cell-based; conditions: PC12 cells differentiated with NGF (10 ng/ml), steroid 30 µM, 3 days; relative to PREG
Protocol: Stimulation of neuritic sprouting is conducted on PC12 cells differentiated in the presence of NGF (10 ng/ml) and the steroid being tested (30 µM) for 3 days. For each condition, the average length of the longest 200 neurites […] is measured simultaneously for 3 cultures.

Serotoninergic 5-HT1B = Serotoninergic 5-HT1B (Rattus norvegicus, UniProt P28564); assay: CNS receptor binding assay, 5-HT1B; conditions: MAP4343 10 µM; [^125I] CYP + (-) propranolol; rat cerebral cortex; read-out: % Inhibition of control specific binding
Protocol: as §1, §2

Noradrenergic β1 = Noradrenergic β1 (Homo sapiens, UniProt P08588); assay: CNS receptor binding assay, β1; conditions: MAP4343 10 µM; [^3H] (-) CGP 12177; Human recombinant (HEK-293 cells); read-out: % Inhibition of control specific binding
Protocol: as §1, §2

Wistar Kyoto (WKY) rats [4] = assay: Anxious-like behavior: activity in the central square of the open-field arena, WKY rats; assay type: in vivo, rat; conditions: acute, MAP4343 10 mg/kg s.c., fluoxetine 10 mg/kg i.p., ketamine 30 mg/kg i.p.
Protocol: After a 6-day period of acclimatization, all experimental groups received daily successive subcutaneous (250 µl per rat) and intraperitoneal (1 ml/kg) injections. WI rats received injection of vehicle (sesame oil + saline) while WKY rats were randomly assigned to […], as follow: KWY rats receiving only vehicle (sesame oil + saline) and WKY rats treated with MAP4343 (10 mg/kg, s.c.; rats received in parallel i.p. injections of saline), fluoxetine (10 mg/kg i.p., rats received in parallel s.c. injections of sesame oil) or ketamine (30 mg/kg, i.p.; rats received in parallel s.c. injections of sesame oil) (see Figure 3).
After, a 6-day period of acclimatization, the acute phase of treatment started for 4 days during behavioral tests were performed (Figure 3). All animals were injected 1h30 before the starting of behavioral test.
The animals were individually placed in the open field arena (OFA) (70 x 100 x 70 cm), with a central square (35 x 50 cm), located in a 50 lux illuminated room and videotaped during 3 min using a computerized system (VideoTrack V2.5, ViewPoint, Lyon, France).
OFA allows firstly the evaluation of total locomotor activity (LMA) thereby measuring the total distance travelled in the arena (in cm). Secondly, measurements of the activity in the center of the arena like (i) the number of entries in the center of arena and (ii) the total time spent in the center of arena (in sec) provide cues of anxiety-like behavior (Prut and Belzung, 2003). All these behavioral parameters were instantaneously measured automatically with the VideoTrack V2.5 software from the videos.

GABA (non-selective) = assay: CNS receptor binding assay, GABA (non-selective); conditions: MAP4343 10 µM; [^3H] GABA; rat cerebral cortex
Protocol: as §1, §2

[5] = target: T2, Mineralocorticoid Receptor (MR) (Rattus norvegicus, UniProt P22199); assay: Radioligand binding assay, steroid hormone receptor MR; conditions: MAP4343 10 µM; 4.5 nM [^3H] D-Aldosterone; Wistar Rat kidney
T2 construct: Wistar Rat kidney; from tissue; host or cells: Wistar rat kidney
Protocol: as §3, §4

T2 sequence (P22199 whole entry): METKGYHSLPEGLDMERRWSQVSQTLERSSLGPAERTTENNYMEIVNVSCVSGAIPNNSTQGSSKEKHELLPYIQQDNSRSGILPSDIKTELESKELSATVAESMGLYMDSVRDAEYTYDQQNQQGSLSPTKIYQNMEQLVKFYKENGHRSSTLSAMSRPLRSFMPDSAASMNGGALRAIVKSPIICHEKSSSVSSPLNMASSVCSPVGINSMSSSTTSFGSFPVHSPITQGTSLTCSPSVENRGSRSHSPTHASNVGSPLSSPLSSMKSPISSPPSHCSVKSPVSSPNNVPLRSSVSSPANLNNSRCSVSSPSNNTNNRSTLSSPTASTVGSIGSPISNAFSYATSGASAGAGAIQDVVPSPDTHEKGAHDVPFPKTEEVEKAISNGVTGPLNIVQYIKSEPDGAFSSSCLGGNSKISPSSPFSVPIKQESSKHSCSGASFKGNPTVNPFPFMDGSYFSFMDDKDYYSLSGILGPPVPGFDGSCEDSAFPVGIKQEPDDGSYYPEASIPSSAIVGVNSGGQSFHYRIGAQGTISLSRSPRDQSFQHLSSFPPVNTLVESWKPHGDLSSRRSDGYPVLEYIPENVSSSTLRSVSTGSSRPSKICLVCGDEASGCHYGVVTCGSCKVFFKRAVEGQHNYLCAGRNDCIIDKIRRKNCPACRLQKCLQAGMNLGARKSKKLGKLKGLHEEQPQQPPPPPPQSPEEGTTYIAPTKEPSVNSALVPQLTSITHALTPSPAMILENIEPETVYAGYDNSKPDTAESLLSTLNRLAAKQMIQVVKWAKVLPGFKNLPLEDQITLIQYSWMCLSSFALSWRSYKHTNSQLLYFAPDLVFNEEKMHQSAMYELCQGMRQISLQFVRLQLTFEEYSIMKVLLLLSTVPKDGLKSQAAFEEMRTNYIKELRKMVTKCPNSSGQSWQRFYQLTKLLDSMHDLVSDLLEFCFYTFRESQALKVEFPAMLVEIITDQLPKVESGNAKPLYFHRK
T1 sequence (Q92731 whole entry): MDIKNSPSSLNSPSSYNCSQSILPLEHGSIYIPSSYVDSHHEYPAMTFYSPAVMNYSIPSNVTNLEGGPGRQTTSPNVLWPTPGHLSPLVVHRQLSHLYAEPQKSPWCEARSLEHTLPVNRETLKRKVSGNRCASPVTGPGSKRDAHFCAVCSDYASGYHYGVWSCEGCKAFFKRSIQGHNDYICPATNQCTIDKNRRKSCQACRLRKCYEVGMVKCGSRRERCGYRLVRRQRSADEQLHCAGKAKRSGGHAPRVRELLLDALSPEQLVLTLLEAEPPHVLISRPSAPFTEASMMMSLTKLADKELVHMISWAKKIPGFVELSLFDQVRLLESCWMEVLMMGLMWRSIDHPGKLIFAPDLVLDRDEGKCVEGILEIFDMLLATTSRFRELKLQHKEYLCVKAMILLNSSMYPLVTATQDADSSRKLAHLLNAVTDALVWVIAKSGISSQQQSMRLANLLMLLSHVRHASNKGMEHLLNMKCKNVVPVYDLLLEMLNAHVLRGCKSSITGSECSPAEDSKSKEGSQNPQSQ
Chain of Noradrenergic Transporter (P23975 whole entry): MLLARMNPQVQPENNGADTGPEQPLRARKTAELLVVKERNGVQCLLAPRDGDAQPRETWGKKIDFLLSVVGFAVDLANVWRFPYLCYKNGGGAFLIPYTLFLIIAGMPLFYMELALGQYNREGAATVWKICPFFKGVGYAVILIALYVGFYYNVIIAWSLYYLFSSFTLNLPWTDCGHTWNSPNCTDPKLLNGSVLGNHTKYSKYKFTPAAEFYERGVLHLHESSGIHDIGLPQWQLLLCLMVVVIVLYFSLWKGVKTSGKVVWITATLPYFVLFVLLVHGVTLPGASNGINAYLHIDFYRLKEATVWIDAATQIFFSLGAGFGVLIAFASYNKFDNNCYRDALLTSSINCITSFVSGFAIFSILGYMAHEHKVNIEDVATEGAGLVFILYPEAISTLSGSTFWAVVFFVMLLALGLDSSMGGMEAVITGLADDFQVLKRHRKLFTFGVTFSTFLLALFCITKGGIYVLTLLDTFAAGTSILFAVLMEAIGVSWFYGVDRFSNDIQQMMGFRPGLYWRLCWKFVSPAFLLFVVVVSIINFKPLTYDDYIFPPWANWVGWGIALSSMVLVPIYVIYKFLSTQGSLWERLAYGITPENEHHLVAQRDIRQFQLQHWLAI
Chain of Noradrenergic β1 (P08588 whole entry): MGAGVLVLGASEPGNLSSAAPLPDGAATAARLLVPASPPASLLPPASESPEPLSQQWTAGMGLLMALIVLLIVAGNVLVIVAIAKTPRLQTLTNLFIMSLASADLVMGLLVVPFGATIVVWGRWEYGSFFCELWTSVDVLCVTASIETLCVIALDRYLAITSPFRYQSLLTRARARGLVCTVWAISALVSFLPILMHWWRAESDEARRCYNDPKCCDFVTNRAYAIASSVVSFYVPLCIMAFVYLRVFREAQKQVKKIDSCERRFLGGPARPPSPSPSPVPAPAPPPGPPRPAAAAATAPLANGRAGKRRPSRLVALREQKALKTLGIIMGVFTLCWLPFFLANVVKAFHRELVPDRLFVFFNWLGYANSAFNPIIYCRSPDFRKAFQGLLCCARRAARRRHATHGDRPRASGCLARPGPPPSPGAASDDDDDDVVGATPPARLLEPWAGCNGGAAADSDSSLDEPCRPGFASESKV
Chain of Dopaminergic D4.4 (P21917 whole entry): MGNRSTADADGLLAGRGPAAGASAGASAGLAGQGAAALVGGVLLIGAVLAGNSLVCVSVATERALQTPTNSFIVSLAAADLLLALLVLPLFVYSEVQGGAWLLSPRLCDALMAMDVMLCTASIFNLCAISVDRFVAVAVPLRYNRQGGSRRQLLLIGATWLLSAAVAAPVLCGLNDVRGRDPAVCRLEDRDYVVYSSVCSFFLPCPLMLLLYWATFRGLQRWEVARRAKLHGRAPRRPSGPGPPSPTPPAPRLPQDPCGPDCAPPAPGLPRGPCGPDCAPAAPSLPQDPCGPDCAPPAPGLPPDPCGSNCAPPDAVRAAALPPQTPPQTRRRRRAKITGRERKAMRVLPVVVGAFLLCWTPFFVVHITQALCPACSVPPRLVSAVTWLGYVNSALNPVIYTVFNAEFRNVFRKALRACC
Chain of Serotoninergic 5-HT1B (P28564 whole entry): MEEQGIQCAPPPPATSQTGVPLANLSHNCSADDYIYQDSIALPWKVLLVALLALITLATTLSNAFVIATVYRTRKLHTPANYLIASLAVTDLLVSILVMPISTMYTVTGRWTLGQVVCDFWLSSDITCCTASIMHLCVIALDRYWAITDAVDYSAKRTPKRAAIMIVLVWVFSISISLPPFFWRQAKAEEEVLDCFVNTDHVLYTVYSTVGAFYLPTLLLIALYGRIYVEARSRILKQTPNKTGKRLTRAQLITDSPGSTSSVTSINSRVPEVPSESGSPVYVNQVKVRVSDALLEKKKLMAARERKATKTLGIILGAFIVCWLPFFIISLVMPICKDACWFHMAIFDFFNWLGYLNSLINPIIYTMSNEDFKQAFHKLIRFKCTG

## CO[C@H]1CC[C@@]2(C)C(=CC[C@H]3[C@@H]4CC[C@H](C(C)=O)[C@@]4(C)CC[C@@H]32)C1 (stereo in doubt) [MAP4343, 3β-methoxy-pregna-5-ene-20-one]
[1]
  inhibition at 10 µM: 3%
Dopaminergic D4.4
  inhibition at 10 µM: 6%
[2]
  in vitro affinity for tested receptors: no significant affinity for any tested receptor
Wistar Kyoto (WKY) rats [3]
  immobility time measured in FST, change as compared to WKY receiving vehicle alone: -25%
NMDA PCP site
  % Inhibition of control specific binding: -10%
ERβ
  % inhibition: 16%
  inhibition at 10 µM: < 25%
PC12 cells
  Neuritic sprouting: +++
Serotoninergic 5-HT1B
  inhibition at 10 µM: 4%
Noradrenergic β1
  inhibition at 10 µM: 1%
Wistar Kyoto (WKY) rats [4]; Fig. 5B
  number of entries in the central square of OFA, change as compared to WKY receiving only vehicle: +289%
Wistar Kyoto (WKY) rats [4]; Fig. 5C
  time spent in the center of open-field, change as compared to WKY receiving vehicle: did not modify
GABA (non-selective)
  % Inhibition of control specific binding: 2%
[5]
  % inhibition: 25%
  inhibition at 10 µM: < 25%
